Experiments:
[1] = molecular target: T1, butyrylcholinesterase (BuChE), equine (Equus caballus, UniProt P81908); test: Ellman spectrophotometric assay ([…] nm); format: biochemical
T1 construct: gene BCHE

[2] = molecular target: acetylcholinesterase (AChE), electric eel, type VI-S (Electrophorus electricus, UniProt O42275); test: Ellman spectrophotometric assay ([…] nm); format: biochemical
acetylcholinesterase (AChE), electric eel, type VI-S, sequence (O42275 24-633): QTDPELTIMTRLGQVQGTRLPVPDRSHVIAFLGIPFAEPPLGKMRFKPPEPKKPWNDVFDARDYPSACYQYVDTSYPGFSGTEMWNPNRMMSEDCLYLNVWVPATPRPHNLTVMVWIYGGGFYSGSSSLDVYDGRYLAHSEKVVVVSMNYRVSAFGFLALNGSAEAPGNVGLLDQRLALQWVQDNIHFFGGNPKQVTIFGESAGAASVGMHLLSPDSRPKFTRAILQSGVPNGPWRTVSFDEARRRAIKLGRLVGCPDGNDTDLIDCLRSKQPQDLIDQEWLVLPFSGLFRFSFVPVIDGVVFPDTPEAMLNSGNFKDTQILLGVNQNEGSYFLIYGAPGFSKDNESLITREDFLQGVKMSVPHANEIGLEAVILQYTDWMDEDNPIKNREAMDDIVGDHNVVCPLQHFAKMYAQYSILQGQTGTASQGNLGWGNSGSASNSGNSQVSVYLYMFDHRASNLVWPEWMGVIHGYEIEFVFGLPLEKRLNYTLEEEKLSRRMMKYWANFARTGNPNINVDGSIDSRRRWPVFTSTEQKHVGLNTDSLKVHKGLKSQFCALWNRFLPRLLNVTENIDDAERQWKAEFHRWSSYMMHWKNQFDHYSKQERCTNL

T1 sequence (P81908 whole entry): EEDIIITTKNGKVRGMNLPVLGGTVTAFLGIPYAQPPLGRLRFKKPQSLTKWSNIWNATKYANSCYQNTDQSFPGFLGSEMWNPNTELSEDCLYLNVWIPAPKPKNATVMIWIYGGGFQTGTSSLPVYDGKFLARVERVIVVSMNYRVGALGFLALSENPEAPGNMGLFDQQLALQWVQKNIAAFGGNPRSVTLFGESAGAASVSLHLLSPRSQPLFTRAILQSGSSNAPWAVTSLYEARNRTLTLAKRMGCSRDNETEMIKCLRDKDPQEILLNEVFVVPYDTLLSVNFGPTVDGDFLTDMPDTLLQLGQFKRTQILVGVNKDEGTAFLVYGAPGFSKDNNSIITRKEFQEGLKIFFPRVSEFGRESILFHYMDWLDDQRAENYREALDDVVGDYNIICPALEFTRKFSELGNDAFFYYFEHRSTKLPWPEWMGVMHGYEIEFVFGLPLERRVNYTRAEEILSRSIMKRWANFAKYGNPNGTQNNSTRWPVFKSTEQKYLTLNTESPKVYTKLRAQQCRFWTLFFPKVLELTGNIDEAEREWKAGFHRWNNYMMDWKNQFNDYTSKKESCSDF

Structure (SMILES): CC(=O)c1c(O)cc(O)cc1C[C@@H]1Cc2cc(O)cc(O)c2C(=O)O1 [feralolide]
- IC50 [1]: 151 µM
- IC50 [2]: 160 µM
